Measurements: US10219516B2, “Molecules having pesticidal utility, and intermediates, compositions, and processes, related thereto” (priority 2015, dated 2019)

Assays:
Format in all cases: in vivo
[1] = system: Yellow Fever Mosquito (Aedes aegypti, AEDSAE); assay: Bioassay on Yellow Fever Mosquito (YFM), 96-well plate larval assay; conditions: Species YFM (Yellow Fever Mosquito)
Outline: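 Each well was scored for mortality after 3 days at room temperature under a non-evaporative lid. Test molecules came from DMSO masters (4000 ppm stock) diluted with water/acetone 90:10 and dispensed into six replicate plates, which were then infested with roughly 1-day-old larvae in liver-powder water.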

[2] = system: Cabbage Looper (Trichoplusia ni, TRIPNI); assay: Bioassay on Cabbage Looper (CL), 128-well diet tray assay; conditions: Trichoplusia ni; Species CL (Cabbage Looper); read-out: CL (Biological Results, rating)
Outline: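 Test molecule is dissolved in 90:10 acetone-water and applied at 50 μg/cm^2 onto artificial diet, then dried. One to five second-instar larvae go into each of eight wells. Trays, sealed but vented, stay at 25° C., 14:10 light-dark, five to seven days, after which mortality is averaged.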

[3] = system: Beet Armyworm (Spodoptera exigua, LAPHEG); assay: Bioassay on Beet Armyworm (BAW), 128-well diet tray assay; conditions: Species BAW (Beet Armyworm), read-out: BAW (Biological Results, rating)
Outline: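 Test molecule dissolved in acetone-water 90:10 is applied at 50 μg/cm^2 onto artificial diet and allowed to dry. Second instar larvae, one to five per well, are then added, and trays are vented and kept at 25° C. for five to seven days before mortality is scored.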

Compound	YFM (Biological Results, rating) [1]	pest or weed control at 50 µg/cm2 [2]	pest or weed control at 50 µg/cm2 [3]
N#Cc1cc(Cl)ccc1NC(=O)c1cc(NC(=O)[C@H]2[C@H](c3cc(Cl)cc(Cl)c3)C2(Cl)Cl)ccc1Cl (relative stereo) [F301, 2-Chloro-N-(4-chloro-2-cyanophenyl)-5-(trans-2,2-dichloro-3-(3,5-dichlorophenyl)cyclopropane-1-carboxamido)benzamide]	A (80-100)	50 to 100%	50 to 100%
N#Cc1c(Cl)cccc1NC(=O)c1cc(NC(=O)[C@H]2[C@H](c3cc(Cl)cc(Cl)c3)C2(Cl)Cl)ccc1Cl (relative stereo) [F302, 2-Chloro-N-(3-chloro-2-cyanophenyl)-5-(trans-2,2-dichloro-3-(3,5-dichlorophenyl)cyclopropane-1-carboxamido)benzamide]	A (80-100)	50 to 100%	50 to 100%
N#Cc1ccc(Br)cc1NC(=O)c1cc(NC(=O)[C@H]2[C@H](c3cc(Cl)cc(Cl)c3)C2(Cl)Cl)ccc1Cl (relative stereo) [F303, N-(5-Bromo-2-cyanophenyl)-2-chloro-5-(trans-2,2-dichloro-3-(3,5-dichlorophenyl)cyclopropane-1-carboxamido)benzamide]	A (80-100)	50 to 100%	50 to 100%
Cc1cccc(NC(=O)c2cc(NC(=O)[C@H]3[C@H](c4cc(Cl)cc(Cl)c4)C3(Cl)Cl)ccc2Cl)c1C#N (relative stereo) [F304, 2-Chloro-N-(2-cyano-3-methylphenyl)-5-(trans-2,2-dichloro-3-(3,5-dichlorophenyl)cyclopropane-1-carboxamido)benzamide]	A (80-100)	50 to 100%	50 to 100%
Nc1ccc(NC(=O)c2cc(NC(=O)[C@H]3[C@H](c4cc(Cl)cc(Cl)c4)C3(Cl)Cl)ccc2Cl)nc1 (relative stereo) [F305, N-(5-Aminopyridin-2-yl)-2-chloro-5-(trans-2,2-dichloro-3-(3,5-dichlorophenyl)cyclopropane-1-carboxamido)benzamide]	A (80-100)	50 to 100%	50 to 100%
O=C(Nc1ccc(F)cc1F)c1cc(NC(=O)[C@H]2[C@H](c3ccc(Br)c(Cl)c3)C2(Cl)Cl)ccc1Cl (relative stereo) [F306, 5-(trans-3-(4-Bromo-3-chlorophenyl)-2,2-dichlorocyclopropane-1-carboxamido)-2-chloro-N-(2,4-difluorophenyl)benzamide]	A (80-100)	50 to 100%	50 to 100%
CN(C(=O)c1cc(NC(=O)[C@H]2[C@H](c3ccc(Br)c(Cl)c3)C2(Cl)Cl)ccc1Cl)c1ccc(F)cc1 (relative stereo) [F307, 5-(trans-3-(4-Bromo-3-chlorophenyl)-2,2-dichlorocyclopropane-1-carboxamido)-2-chloro-N-(4-fluorophenyl)-N-methylbenzamide]	A (80-100)	50 to 100%	50 to 100%
N#Cc1cc(F)ccc1NC(=O)c1cc(NC(=O)[C@H]2[C@H](c3cc(C(F)(F)F)cc(C(F)(F)F)c3)C2(Cl)Cl)ccc1Cl (relative stereo) [F308, trans-5-(3-(3,5-bis(Trifluoromethyl)phenyl)-2,2-dichlorocyclopropane-1-carboxamido)-2-chloro-N-(2-cyano-4-fluorophenyl)benzamide]	A (80-100)	50 to 100%	50 to 100%
O=C(Nc1ncc(I)cc1F)c1cc(NC(=O)[C@H]2[C@H](c3cc(Cl)cc(Cl)c3)C2(Cl)Cl)ccc1Cl (relative stereo) [F312, 2-Chloro-5-(trans)-(2,2-dichloro-3-(3,5-dichlorophenyl)cyclopropane-1-carboxamido)-N-(3-fluoro-5-iodopyridin-2-yl)benzamide]	A (80-100)	50 to 100%	50 to 100%
C=Cc1ccc([C@H]2[C@H](C(=O)Nc3ccc(Cl)c(C(=O)Nc4ccc(F)cc4F)c3)C2(Cl)Cl)cc1Cl (relative stereo) [F319, 2-Chloro-5-(trans-2,2-dichloro-3-(3-chloro-4-vinylphenyl)cyclopropane-1-carboxamido)-N-(2,4-difluorophenyl)benzamide]	A (80-100)	50 to 100%	50 to 100%
N#Cc1cc(F)ccc1NC(=O)c1cc(NC(=O)[C@H]2[C@H](c3ccc(Br)c(Cl)c3)C2(Cl)Cl)ccc1Cl (relative stereo) [F320, 5-(trans-3-(4-Bromo-3-chlorophenyl)-2,2-dichlorocyclopropane-1-carboxamido)-2-chloro-N-(2-cyano-4-fluorophenyl)benzamide]	A (80-100)	50 to 100%	50 to 100%
Cc1cc(NC(=O)OC(C)(C)C)ccc1NC(=O)c1cc(NC(=O)[C@H]2[C@H](c3ccc(Br)c(Cl)c3)C2(Cl)Cl)ccc1Cl (relative stereo) [F322, tert-Butyl (4-(5-(trans-3-(4-bromo-3-chlorophenyl)-2,2-dichlorocyclopropane-1-carboxamido)-2-chlorobenzamido)-3-methylphenyl)carbamate]	A (80-100)	50 to 100%	50 to 100%
CNc1ccc(NC(=O)c2cc(NC(=O)[C@H]3[C@H](c4ccc(Br)c(Cl)c4)C3(Cl)Cl)ccc2Cl)c(C)c1 (relative stereo) [F323, 5-(trans-3-(4-bromo-3-chlorophenyl)-2,2-dichlorocyclopropane-1-carboxamido)-2-chloro-N-(2-methyl-4-(methylamino)phenyl)benzamide]	A (80-100)	50 to 100%	50 to 100%
Cc1cc(N)ccc1NC(=O)c1cc(NC(=O)[C@H]2[C@H](c3ccc(Br)c(Cl)c3)C2(Cl)Cl)ccc1Cl (relative stereo) [F324, N-(4-Amino-2-methylphenyl)-5-(trans-3-(4-bromo-3-chlorophenyl)-2,2-dichlorocyclopropane-1-carboxamido)-2-chlorobenzamide]	A (80-100)	50 to 100%	50 to 100%
Nc1c(F)ccc(NC(=O)c2cc(NC(=O)[C@H]3[C@H](c4ccc(Br)c(Cl)c4)C3(Cl)Cl)ccc2Cl)c1F (relative stereo) [F325, N-(3-Amino-2,4-difluorophenyl)-5-(trans-3-(4-bromo-3-chlorophenyl)-2,2-dichlorocyclopropane-1-carboxamido)-2-chlorobenzamide]	A (80-100)	50 to 100%	50 to 100%
Nc1cccc(NC(=O)c2cc(NC(=O)[C@H]3[C@H](c4cc(Cl)cc(Cl)c4)C3(Cl)Cl)ccc2Cl)n1 (relative stereo) [F326, trans-N-(6-aminopyridin-2-yl)-2-chloro-5-(2,2-dichloro-3-(3,5-dichlorophenyl)cyclopropane-1-carboxamido)benzamide]	A (80-100)	50 to 100%	50 to 100%
Nc1cccc(NC(=O)c2cc(NC(=O)[C@H]3[C@H](c4ccc(F)c(Cl)c4)C3(Cl)Cl)ccc2Cl)n1 (relative stereo) [F327, N-(6-Aminopyridin-2-yl)-2-chloro-5-(trans-2,2-dichloro-3-(3-chloro-4-fluorophenyl)cyclopropane-1-carboxamido)benzamide]	A (80-100)	50 to 100%	50 to 100%
C=Cc1ccc([C@H]2[C@H](C(=O)Nc3ccc(Cl)c(C(=O)N(C)c4ccc(F)cc4)c3)C2(Cl)Cl)cc1Cl (relative stereo) [F329, 2-Chloro-5-(trans-2,2-dichloro-3-(3-chloro-4-vinylphenyl)cyclopropane-1-carboxamido)-N-(4-fluorophenyl)-N-methylbenzamide]	A (80-100)	50 to 100%	50 to 100%
O=C(Nc1ccc(F)cc1)c1cc(NC(=O)[C@H]2[C@H](c3ccc(Cl)c(Br)c3)C2(Cl)Cl)ccc1Cl (relative stereo) [F330, 5-(trans-3-(3-Bromo-4-chlorophenyl)-2,2-dichlorocyclopropane-1-carboxamido)-2-chloro-N-(4-fluorophenyl)benzamide]	A (80-100)	50 to 100%	50 to 100%
O=C(Nc1ccc(F)cc1F)c1cc(NC(=O)[C@H]2[C@H](c3ccc(Cl)c(Br)c3)C2(Cl)Cl)ccc1Cl (relative stereo) [F331, 5-(trans-3-(3-Bromo-4-chlorophenyl)-2,2-dichlorocyclopropane-1-carboxamido)-2-chloro-N-(2,4-difluorophenyl)benzamide]	A (80-100)	50 to 100%	50 to 100%
N#Cc1cc(F)ccc1NC(=O)c1cc(NC(=O)[C@H]2[C@H](c3ccc(Cl)c(Br)c3)C2(Cl)Cl)ccc1Cl (relative stereo) [F332, 5-(trans-3-(3-Bromo-4-chlorophenyl)-2,2-dichlorocyclopropane-1-carboxamido)-2-chloro-N-(2-cyano-4-fluorophenyl)benzamide]	A (80-100)	50 to 100%	50 to 100%
